# Laboratory results from patent US7135305B2, “Methods for controlling the lysis of coagulated blood with apolipoprotein e4 phenotype” (priority 2000, dated 2006).
# What was measured:
# [1] = system: t-PA induced clot lysis; experiment: in vitro clot assay system, t-PA induced clot lysis with supplemental Apo E isoproteins (Example 3); set-up: species or system human; conditions: FIG. 4; t-PA 0 to 4 μg/ml, alone or with supplemental Apo E 9.8 μg/ml; blood of 18 volunteers
# Protocol: The ability of Apo E isoproteins to modulate t-PA induced clot lysis is assessed using an in vitro clot assay system. This system uses the decrease in clot formation in the presence of t-PA to approximate the amount of clot lysis. Blood samples are obtained from 18 volunteers and divided into three Apo E genotypes (6 patients in each group): E2 (E2/E2, E2/E3, E2/E4), E3 (E3/E3) and E4 (E3/E4, E4/E4). Clot lysis in the presence of varying concentrations of t-PA (0 to 4 μg/ml), is assessed in the presence or absence of supplemental Apo E2, E3 or E4 (9.8 μg/ml) for each patient genotype. The results are expressed as EC50s, which are the effective concentrations of t-PA required to achieve 50% lysis of the clot.
# [2] = system: t-PA stimulated clot lysis in fresh human blood; experiment: in vitro clot lysis measured by the amount of liquid liberated from the blood sample (Example 1); conditions: FIG. 2; individual B's blood; t-PA alone 0.5 mg/l blood; N=3
# Description: There are various methods for determining the function, action and or kinetics of t-PA. These include but are not limited to: measuring fibrin degradation fragments, clot lysis, clot weight, fluid evolution weight, clot times and others. Those experienced in the art will be familiar with these and other methods for assaying t-PA activity or clot degradation/formation etc. The data from this study consists of a measurement of clot dissolution or lysis by measuring the amount of liquid liberated from the blood sample. This is an index of clot lysis and the clot lysis is stimulated by t-PA.
# Typically, two mls of fresh human blood are drawn and added to pre-weighed vials containing known amounts of t-PA with or without Apo E4. The blood is mixed and allowed to equilibrate for 40 minutes. The vials are centrifuged at 1 g for 15 minutes and the supernatant decanted. Clot weight and solution weight is determined and used to measure clot degradation or dissolution. Increasing supernatant volumes indicate increased clot degradation or increasing clot dissolution.
substance,measurement,setting,value
"t-PA: tissue plasminogen activator, clot lysis agent","EC50, effective concentration of t-PA required to achieve 50% lysis of the clot",[1],0.72 ± 0.19 µg/mL
same,level of clot lysis,[2],2.5 g
